In general, IC50 refers to the concentration needed to halve the response being measured.

≈ marks a conversion by molar mass, not a printed value.

This is an account of results in US20040110963A1, “Novel hydrazones” (priority 2001, published 2004).

The test system of one test is Escherichia coli DC2. Kind of test: In vitro antibacterial activity (MIC, NCCLS M7-A5 dilution susceptibility test). Type of test: cell-based. As to conditions: for MIC: read-out: Minimum Inhibitory Concentration (MIC) Escherichia coli DC2. The procedure:
(§1) Antimicrobial susceptibility testing was performed in accordance with the National Committee for Clinical Laboratory Standards (NCCLS) procedure [M7-A5, 2001: Methods for Dilution Antimicrobial Susceptibility Tests for Bacteria That Grow Aerobically; Approved Standard-Fifth Edition American National Standard].

The subject of test [1] is Staphylococcus aureus 101. Described as above. Type of test: cell-based. As to conditions: for MIC: read-out: Minimum Inhibitory Concentration (MIC) Staphylococcus aureus 101. As for the experimental part:
as §1

Test [2] has as its system Staphylococcus aureus ATCC25923. Described as above. As to conditions: for MIC: read-out: Minimum Inhibitory Concentration (MIC) Staphylococcus aureus ATCC25923. The test is classed as cell-based. As for the experimental part: as §1
Test [3] addresses enzyme I of the bacterial phosphotransferase system (PTS) (Escherichia coli, UniProt P08839). In words: Assay for Enzyme I dependent PEP: peptide phosphotransferase activity (LDH-coupled, NADH read-out at 340 nm). Type of test: biochemical. To be noted: enzyme I 0.75 μM, 0.8 mM PEP, pH 7.5; read-out: Inhibition of PTS (IC50 in μM). From the text:
The determination of activity of a compound of the present invention in the PTS may be summarized as follows:
Assay for Enzyme I Dependent PEP:
Peptide Phosphotransferase Activity. [formula]
To find inhibitors of Enzyme I of the PTS by high throughput screening, an in vitro assay based on spectrophotometric read out at 340 nm has been set up. The assay comprises of three major components, purified enzyme I in catalytic amounts, Phosphoenol Pyruvate (PEP) as the phosphoryl donor substrate and purified HPr as the phosphoryl acceptor substrate.
The assay couples the formation of pyruvate formed from PEP to lactate, catalyzed by lactate dehydrogenase. The disappearance of NADH, cofactor required by lactate dehydrogenase, is determined spectrophotometerically at 340 nm. The assay is done in a U-shaped microtiter plate format, and quantitation is done using microplate absorbance reader.
100 μl reaction mixture contained 0.8 mM PEP, 0.2 mM NADH, 3 μg lactate dehydrogenase (Boehringer Mannheim), 50 mM KPi pH=7.5, 2.5 mM dithiothreitol, 2.5 mM NaF, 5 mM MgCI2, and between 50 and 100 μM of the compound. The reaction is started by the addition of enzyme I (final concentration 0.75 μM). In a control experiment the compound is replaced by DMSO.

As for “3,5-Bis-(trifluoromethyl)-N′-(2,3,4-trihydroxy-benzylidene)-benzohydrazide [Example 41]”, in the test with Escherichia coli DC2, the “Minimum Inhibitory Concentration (MIC) Escherichia coli DC2” value was “na (na means not active at concentrations less than 128 μg/ml)”. Moreover, the “Minimum Inhibitory Concentration (MIC) Staphylococcus aureus 101” value in test [1] is 64 micrograms/ml. The “Minimum Inhibitory Concentration (MIC) Staphylococcus aureus ATCC25923” value in test [2] was 64 micrograms/ml.
Consider `COc1cc(C(=O)NN=Cc2cc(Cl)ccc2O)ccc1O` [Example 14, 4-Hydroxy-3-methoxy-N′-(5-chloro-2-hydroxy-benzylidene)-benzohydrazide], for which the IC50 in test [3] was determined as 25 µM. Also, the MIC (in the test on Escherichia coli DC2; in test [2]) was 128 µg/mL (≈ 399 µM) throughout.
On to `O=C(NN=Cc1cc(Cl)ccc1O)c1cccc(C(F)(F)F)c1` [Example 21, 3-Trifluoromethyl-N′-(5-chloro-2-hydroxy-benzylidene)-benzohydrazide], for which the IC50 in test [3] was 12 µM. The MIC with Escherichia coli DC2 was greater than 128 µg/mL; in test [2], 16 µg/mL (≈ 46.7 µM).
Consider `COc1ccc(C(=O)NN=Cc2ccc(O)c(O)c2O)cc1` [Example 39, 4-Methoxy-N′-(2,3,4-trihydroxy-benzylidene)-benzohydrazide], for which the MIC (in the test with Escherichia coli DC2; in test [1]; in test [2]) was 64 µg/mL (≈ 212 µM) in each case.
Regarding `O=C(NN=Cc1cccc(O)c1O)c1ccc(Cl)c(Cl)c1` [Example 40, 3,4-Dichloro-N′-(2,3-dihydroxy-benzylidene)-benzohydrazide], the values for the MIC (with Escherichia coli DC2; in test [1]; in test [2]) were greater than 128 µg/mL, 4 µg/mL (≈ 12.3 µM) and 4 µg/mL (≈ 12.3 µM), respectively.
As for `O=C(NN=Cc1ccc(O)c(O)c1O)c1cccc(Cl)c1-n1cccc1` [Example 42, 3-Chloro-2-pyrrol-1-yl-N′-(2,3,4-trihydroxy-benzylidene)-benzohydrazide], the MIC in the test on Escherichia coli DC2 is 128 µg/mL (≈ 344 µM); in test [1], 32 µg/mL (≈ 86.1 µM); in test [2], 32 µg/mL (≈ 86.1 µM).
For the compound `O=C(NN=Cc1cc(Cl)cc(Cl)c1O)c1cccc(Cl)c1-n1cccc1` [Example 43, 3-Chloro-2-pyrrol-1-yl-N′-(2-hydroxy-3,5-dichloro-benzylidene)-benzohydrazide], the MIC was greater than 128 µg/mL in the test on Escherichia coli DC2, 2 µg/mL (≈ 4.89 µM) in test [1] and 2 µg/mL (≈ 4.89 µM) in test [2].
As for `O=C(NN=Cc1cc(O)c(O)cc1O)c1ccccc1-n1cccc1` [Example 44, 2-Pyrrol-1-yl-N′-(2,4,5-trihydroxy-benzylidene)-benzohydrazide], the values for the MIC (in the test with Escherichia coli DC2; in test [1]; in test [2]) were 128 µg/mL (≈ 379 µM), 64 µg/mL (≈ 190 µM) and 64 µg/mL (≈ 190 µM), respectively.
For the compound `O=C(NN=Cc1ccc(O)c(O)c1O)c1ccc(Cl)c(C(F)(F)F)c1` [Example 45, 4-Chloro-3-trifluoromethyl-N′-(2,3,4-trihydroxy-benzylidene)-benzohydrazide], the MIC came out at 2 µg/mL (≈ 5.34 µM) with Escherichia coli DC2, 1 µg/mL (≈ 2.67 µM) in test [1] and 0.5 µg/mL (≈ 1.33 µM) in test [2].
Take `O=C(NN=Cc1cc(Cl)cc(Cl)c1O)c1ccc(Cl)c(C(F)(F)F)c1` [Example 46, 4-Chloro-3-trifluoromethyl-N′-(2-hydroxy-3,5-dichloro-benzylidene)-benzohydrazide]: the MIC was greater than 128 µg/mL in the test on Escherichia coli DC2, 128 µg/mL (≈ 311 µM) in test [1] and 128 µg/mL (≈ 311 µM) in test [2].
